Measurements taken from patent US11629146B2, “Substituted [1,2,4]triazolo[4,3-a]pyrazines as modulators of sodium channel activity” (Praxis Precision Medicines, Inc., priority 2016, dated 2023).
Where two headings read alike, the source gives them in different places.

Tests used:
[1] = molecular target: human NaV1.6 (hNaV1.6) (Homo sapiens (Human), UniProt Q9UQD0); assay: INaL inhibition at hNaV1.6, PatchXpress electrophysiology; assay type: cell-based
Protocol: Functional characterization of exemplary compounds to modulate INaL expressed by the Nay 1.6 voltage-gated sodium channel was accomplished using the PatchXpress™ high throughput electrophysiology platform (Molecular Devices, Sunnyvale, Calif.). HEK-293 cells expressing recombinant, human NaV1.6 (hNaV1.6) were grown in DMEM/high-glucose Dulbecco's modified, 10% FBS, 2 mM sodium pyruvate, 10 mM HEPES and 400 μg/mL G418. Cells were grown to 50%-80% confluency prior to harvesting. […] The onboard liquid handling facility of the PatchXpress was used for dispensing cells and applying test compounds. Nay late currents were evoked by the application of 300 nM ATX-II. […] INaL amplitude and stability were determined by analyzing the mean current amplitude over the final 20 ms of the test pulse. […] Percent steady-state inhibition of INaL was calculated as: [(INaL_compound)/(INaL_control)]*100, where INaL_compound and INaL_control represent INaL recorded in the presence or absence of compound, respectively.

[2] = molecular target: CYP1A2 (Homo sapiens (Human), UniProt P05177); assay: CYP1A2 inhibition in human liver microsomes; assay type: in vitro ADME; conditions: pooled human liver microsomes, marker substrate Phenacetin
Protocol: The specific marker metabolites are measured with LC/MS/MS. The remaining enzymatic activities and inhibitory potency IC50 are determined. Microsomes are removed out of the −80° C. freezer to thaw on ice and 20 μL of the substrates solution added to the corresponding wells. […] Then 158 μL of the HLM working solution was added to all wells of the incubation plate. The plate was pre-warmed for about 10 min using a 37° C. water bath. Then 20 μL of the NADPH cofactor solution was added to all incubation wells, mixed and incubated for 10 minutes at 37° C. water bath. The reaction is terminated by adding 400 μL cold stop solution (200 ng/mL Tolbutamide and 200 ng/mL Labetalol in ACN). […] Finally 200 μL of the supernatant was transferred to 100 μL HPLC water, shaken for 10 min and analyzed by LC/MS/MS. […] Equation for three parameters logistic sigmoidal curve: […]

[3] = PK rat clearance experiment; assay type: in vivo; conditions: male Sprague-Dawley rats, single intravenous bolus 0.5 mg/kg, plasma
Protocol: The IV dosing solution was prepared freshly on the dosing day. Test article (0.5 mg/kg) was prepared in a vehicle, for example, consisting of 5% DMSO/5% solutol/90% water. The concentrations of test article in all dosing solutions were determined by HPLC/UV. Three male Sprague-Dawley rats were used in this study. The animals were confirmed healthy before being assigned to the study. Each animal was given a unique identification number which was marked on the tail or the ear, and written on the cage card. All animals were fasted overnight before dosing and the food was returned at 4 hours post dosing. Water was provided to all animals ad libitum during the fasting period. Animals were weighed prior to dose administration on the day of dosing for calculating the actual dose volume. The body weights were in the range from 212 g to 223 g for males. All animals received test article by single intravenous bolus administration at 0.5 mg/kg. Approximately 0.2 mL blood was collected at each time point via jugular vein from each study animal. […] All blood samples were transferred into pre-labeled plastic micro centrifuge tubes and mixed with the pre-loaded anti-coagulant K2EDTA (5 μL, 0.5 M). Plasma samples were then prepared by centrifuging the blood samples. All plasma samples were then quickly frozen over dry ice and kept at −60° C. or lower until LC/MS/MS analysis. The concentrations of test article in plasma were determined by using a quantitative bioanalytical LC/MS/MS method. The lower limit of quantitation (LLOQ) for test article in plasma was 1 ng/mL, and the upper limit of quantitation (ULOQ) in plasma was 3000 ng/mL. The plasma concentration of test article in rats was subjected to a non compartmental pharmacokinetic analysis by using the Phoenix WinNonlin software (version 6.3, Pharsight, Mountain View, Calif.). The linear/log trapezoidal rule was applied in obtaining the PK parameters.

[4] = molecular target: human NaV1.5 late sodium current (INaL) (Homo sapiens (Human), UniProt Q14524); assay: INaL inhibition at hNaV1.5, PatchXpress electrophysiology; assay type: cell-based; conditions: HEK-293 cells expressing recombinant human NaV1.5, HEK-293 cells expressing hNaV1.5, late current evoked by 300 nM ATX-II, read-out: INaL v1.5 (1 μM, % Inhibition)
[5] = HEK293, 1 μM, HEK-293 cells expressing hNaV1.6, late current evoked by 300 nM ATX-II, read-out: INaL v1.6 (1 μM, % Inhibition)
[6] = HEK293, read-out: INaL v1.6 (1 μM, % Inhibition)

Chain of human NaV1.5 late sodium current (INaL) (Q14524 whole entry): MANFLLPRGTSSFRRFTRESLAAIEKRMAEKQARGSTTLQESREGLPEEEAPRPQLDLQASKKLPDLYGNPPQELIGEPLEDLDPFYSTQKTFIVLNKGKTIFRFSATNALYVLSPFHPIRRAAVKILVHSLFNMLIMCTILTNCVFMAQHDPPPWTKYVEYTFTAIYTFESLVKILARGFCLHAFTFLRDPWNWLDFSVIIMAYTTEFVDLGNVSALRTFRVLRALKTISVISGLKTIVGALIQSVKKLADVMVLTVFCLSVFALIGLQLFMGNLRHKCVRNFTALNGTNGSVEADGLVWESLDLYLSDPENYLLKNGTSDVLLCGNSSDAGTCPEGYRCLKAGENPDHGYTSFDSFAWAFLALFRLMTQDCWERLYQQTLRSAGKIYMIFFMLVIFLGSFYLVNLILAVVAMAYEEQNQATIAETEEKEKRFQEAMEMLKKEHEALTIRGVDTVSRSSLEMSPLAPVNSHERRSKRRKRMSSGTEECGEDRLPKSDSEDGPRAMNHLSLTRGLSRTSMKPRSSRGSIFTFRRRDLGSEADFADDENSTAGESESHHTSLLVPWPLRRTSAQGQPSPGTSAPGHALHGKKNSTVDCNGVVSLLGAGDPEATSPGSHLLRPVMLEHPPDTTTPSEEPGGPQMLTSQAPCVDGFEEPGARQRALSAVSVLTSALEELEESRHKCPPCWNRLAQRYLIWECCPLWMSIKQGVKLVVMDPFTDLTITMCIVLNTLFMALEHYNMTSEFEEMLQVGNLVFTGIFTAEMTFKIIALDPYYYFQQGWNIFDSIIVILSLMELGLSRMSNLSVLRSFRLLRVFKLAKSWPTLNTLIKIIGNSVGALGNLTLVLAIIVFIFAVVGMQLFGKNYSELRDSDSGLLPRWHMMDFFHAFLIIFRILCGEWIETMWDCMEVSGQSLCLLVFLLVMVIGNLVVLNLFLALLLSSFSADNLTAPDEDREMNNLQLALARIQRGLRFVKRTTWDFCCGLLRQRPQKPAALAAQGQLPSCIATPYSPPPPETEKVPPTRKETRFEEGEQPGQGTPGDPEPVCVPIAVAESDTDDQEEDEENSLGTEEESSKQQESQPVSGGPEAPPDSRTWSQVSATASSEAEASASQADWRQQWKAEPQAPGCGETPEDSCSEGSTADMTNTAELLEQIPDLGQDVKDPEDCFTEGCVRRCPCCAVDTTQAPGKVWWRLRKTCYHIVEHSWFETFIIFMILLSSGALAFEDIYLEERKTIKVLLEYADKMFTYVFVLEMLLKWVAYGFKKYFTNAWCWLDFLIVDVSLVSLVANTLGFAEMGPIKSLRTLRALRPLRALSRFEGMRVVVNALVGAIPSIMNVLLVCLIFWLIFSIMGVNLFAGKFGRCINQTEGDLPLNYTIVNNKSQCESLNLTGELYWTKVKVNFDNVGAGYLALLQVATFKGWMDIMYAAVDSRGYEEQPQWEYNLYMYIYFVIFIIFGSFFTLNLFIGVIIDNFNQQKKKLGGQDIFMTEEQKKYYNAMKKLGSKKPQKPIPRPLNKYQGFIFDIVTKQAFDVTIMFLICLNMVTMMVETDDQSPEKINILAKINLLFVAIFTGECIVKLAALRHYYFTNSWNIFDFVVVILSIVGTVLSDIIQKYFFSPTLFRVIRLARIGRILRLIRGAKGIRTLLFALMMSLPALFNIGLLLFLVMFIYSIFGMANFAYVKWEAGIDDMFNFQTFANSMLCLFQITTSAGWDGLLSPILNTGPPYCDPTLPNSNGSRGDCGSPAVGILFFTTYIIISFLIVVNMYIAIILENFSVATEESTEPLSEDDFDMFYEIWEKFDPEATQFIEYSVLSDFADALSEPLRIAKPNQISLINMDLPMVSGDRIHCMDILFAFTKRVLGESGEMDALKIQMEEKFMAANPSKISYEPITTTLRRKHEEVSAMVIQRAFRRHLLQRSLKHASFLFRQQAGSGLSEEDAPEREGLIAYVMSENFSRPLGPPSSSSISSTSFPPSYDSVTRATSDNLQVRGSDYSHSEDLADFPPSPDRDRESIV
Chain of CYP1A2 (P05177 whole entry): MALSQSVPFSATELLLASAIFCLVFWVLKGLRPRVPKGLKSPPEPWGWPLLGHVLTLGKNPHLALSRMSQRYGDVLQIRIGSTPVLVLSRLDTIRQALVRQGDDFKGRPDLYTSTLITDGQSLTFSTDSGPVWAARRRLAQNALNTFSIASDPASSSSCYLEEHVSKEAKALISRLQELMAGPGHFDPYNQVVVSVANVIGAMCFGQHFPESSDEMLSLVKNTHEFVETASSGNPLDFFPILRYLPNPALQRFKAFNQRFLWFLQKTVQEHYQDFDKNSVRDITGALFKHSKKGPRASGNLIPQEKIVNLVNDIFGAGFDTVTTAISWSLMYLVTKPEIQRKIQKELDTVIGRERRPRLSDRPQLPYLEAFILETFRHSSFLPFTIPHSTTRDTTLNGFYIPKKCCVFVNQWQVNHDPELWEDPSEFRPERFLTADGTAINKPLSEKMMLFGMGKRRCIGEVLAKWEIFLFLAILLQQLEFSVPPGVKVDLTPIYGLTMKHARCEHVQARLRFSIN
Chain of human NaV1.6 (hNaV1.6) (Q9UQD0 whole entry): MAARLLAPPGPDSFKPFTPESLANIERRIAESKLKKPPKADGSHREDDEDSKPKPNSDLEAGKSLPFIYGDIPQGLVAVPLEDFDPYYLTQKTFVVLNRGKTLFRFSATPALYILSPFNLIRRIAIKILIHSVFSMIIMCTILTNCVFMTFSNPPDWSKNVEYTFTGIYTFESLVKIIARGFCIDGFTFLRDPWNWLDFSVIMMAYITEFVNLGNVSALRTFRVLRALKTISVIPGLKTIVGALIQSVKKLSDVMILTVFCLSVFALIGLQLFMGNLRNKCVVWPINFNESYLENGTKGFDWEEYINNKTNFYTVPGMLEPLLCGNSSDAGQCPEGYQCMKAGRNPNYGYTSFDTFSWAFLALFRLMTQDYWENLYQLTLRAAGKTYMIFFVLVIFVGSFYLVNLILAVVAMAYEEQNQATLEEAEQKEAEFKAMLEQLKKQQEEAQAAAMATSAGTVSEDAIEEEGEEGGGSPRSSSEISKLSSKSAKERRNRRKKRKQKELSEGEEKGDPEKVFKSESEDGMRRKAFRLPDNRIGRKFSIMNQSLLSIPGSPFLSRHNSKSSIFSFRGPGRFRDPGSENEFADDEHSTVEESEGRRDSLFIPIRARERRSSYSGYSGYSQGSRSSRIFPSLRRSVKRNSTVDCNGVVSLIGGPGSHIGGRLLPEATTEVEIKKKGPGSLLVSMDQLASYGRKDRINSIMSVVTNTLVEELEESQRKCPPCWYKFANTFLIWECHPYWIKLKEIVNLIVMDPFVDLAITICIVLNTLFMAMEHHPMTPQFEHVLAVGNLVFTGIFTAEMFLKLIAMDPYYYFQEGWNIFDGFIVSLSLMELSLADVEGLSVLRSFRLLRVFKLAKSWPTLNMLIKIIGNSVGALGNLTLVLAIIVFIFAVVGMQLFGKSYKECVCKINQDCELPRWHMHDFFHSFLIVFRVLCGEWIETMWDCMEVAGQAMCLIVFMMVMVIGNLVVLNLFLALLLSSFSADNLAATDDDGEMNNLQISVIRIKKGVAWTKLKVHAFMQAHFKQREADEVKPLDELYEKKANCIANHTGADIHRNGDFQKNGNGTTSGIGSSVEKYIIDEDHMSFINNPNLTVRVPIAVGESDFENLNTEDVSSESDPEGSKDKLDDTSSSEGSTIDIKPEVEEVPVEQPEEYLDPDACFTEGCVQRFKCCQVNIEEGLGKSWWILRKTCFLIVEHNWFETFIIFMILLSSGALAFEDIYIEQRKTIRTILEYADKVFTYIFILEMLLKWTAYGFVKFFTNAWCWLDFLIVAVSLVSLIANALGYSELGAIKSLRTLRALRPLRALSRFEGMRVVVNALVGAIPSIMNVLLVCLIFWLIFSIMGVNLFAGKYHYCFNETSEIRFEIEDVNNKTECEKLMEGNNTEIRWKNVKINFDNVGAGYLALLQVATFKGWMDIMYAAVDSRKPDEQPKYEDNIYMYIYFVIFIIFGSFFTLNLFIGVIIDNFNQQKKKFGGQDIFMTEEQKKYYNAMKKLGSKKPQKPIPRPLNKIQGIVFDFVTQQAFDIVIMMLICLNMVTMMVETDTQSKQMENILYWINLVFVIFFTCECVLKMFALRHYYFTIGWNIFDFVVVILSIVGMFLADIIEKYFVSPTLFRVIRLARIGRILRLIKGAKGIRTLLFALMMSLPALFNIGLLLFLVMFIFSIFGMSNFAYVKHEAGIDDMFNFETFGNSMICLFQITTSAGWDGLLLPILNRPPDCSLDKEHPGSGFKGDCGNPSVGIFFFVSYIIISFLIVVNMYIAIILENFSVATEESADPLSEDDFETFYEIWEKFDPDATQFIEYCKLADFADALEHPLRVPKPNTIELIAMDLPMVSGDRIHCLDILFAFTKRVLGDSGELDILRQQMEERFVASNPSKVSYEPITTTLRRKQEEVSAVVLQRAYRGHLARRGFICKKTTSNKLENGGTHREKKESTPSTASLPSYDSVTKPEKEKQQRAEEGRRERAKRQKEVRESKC

| SMILES | inhibition at 1 µM [1, 5] | IC50 [2] | inhibition at 1 µM [1, 6] | clearance [3] | half-life [3] | inhibition at 1 µM [4] |
| --- | --- | --- | --- | --- | --- | --- |
| FC(F)(F)Oc1ccc(-c2ccc3nnc(C[C@H]4CCCCO4)n3n2)cc1 (single isomer, unassigned) [Compound 42] | 30 to 70% | > 30 µM |  |  |  |  |
| FC(F)(F)Oc1ccc(-c2ccc3nnc(C[C@@H]4CCCCO4)n3n2)cc1 (single isomer, unassigned) [Compound 43] | 30 to 70% | > 30 µM |  |  |  |  |
| FC(F)(F)c1nnc2ccc(-c3ccc([C@@H]4CC4(F)F)cc3)nn12 (single isomer, unassigned) [Compound 122] |  | < 1 µM | > 70% |  |  |  |
| C[C@@H](Oc1ncc(-c2cn3c(C(F)(F)F)nnc3cn2)cc1F)C(F)(F)F (single isomer, unassigned) [Compound 124] | > 70% | > 30 µM |  | 15.9 mL/min/kg | 6.5 h |  |
| C[C@H](Oc1ncc(-c2cn3c(C(F)(F)F)nnc3cn2)cc1F)C(F)(F)F (single isomer, unassigned) [Compound 125] | > 70% | > 30 µM |  |  |  |  |
| C[C@@H](Oc1ncc(-c2ccc3nnc(C(F)(F)F)n3n2)cc1F)C(F)(F)F (single isomer, unassigned) [Compound 126] | > 70% | > 30 µM |  |  |  |  |
| C[C@H](Oc1ncc(-c2ccc3nnc(C(F)(F)F)n3n2)cc1F)C(F)(F)F (single isomer, unassigned) [Compound 127] | > 70% | > 30 µM |  |  |  |  |
| FC(F)(F)c1ccc(-c2ccc3nnc(C(F)(F)F)n3n2)cc1 [Compound 1] | > 70% |  |  |  |  | > 50% |
| Cc1cc(-c2ccc3nnc(C(F)(F)F)n3n2)ccc1OC(F)(F)F [Compound 2] | > 70% |  |  |  |  | > 50% |
| FC(F)(F)COc1ccc(-c2ccc3nnc(CC(F)(F)F)n3n2)cn1 [Compound 7] | 30 to 70% |  |  |  |  | < 50% |
| FC(F)(F)COc1ccc(-c2ccc3nnc(C4CC4)n3n2)cn1 [Compound 8] | 30 to 70% |  |  |  |  | > 50% |
| FC(F)(F)COc1ccc(-c2ccc3nnc(C(F)(F)C(F)(F)F)n3n2)cn1 [Compound 9] | 30 to 70% |  |  |  |  | > 50% |
| FC(F)(F)Oc1ccc(-c2ccc3nnc(CC4CCOC4)n3n2)cc1 (stereo not shown) [Compound 10] | 30 to 70% |  |  |  |  | < 50% |
| FC(F)(F)Oc1ccc(-c2ccc3nnc(CC4CCCO4)n3n2)cc1 (stereo not shown) [Compound 11] | < 30% |  |  |  |  | < 50% |
| COc1cc(OC(F)(F)F)ccc1-c1ccc2nnc(C3CC(F)(F)C3)n2n1 [Compound 13] | > 70% |  |  |  |  | > 50% |
| FC1(F)CC(c2nnc3ccc(-c4ccc(OC(F)(F)F)cc4)nn23)C1 [Compound 14] | > 70% |  |  | 32.8 mL/min/kg | 1.4 h | > 50% |
| COc1cc(OC(F)(F)F)ccc1-c1ccc2nnc(C3CC3(F)F)n2n1 (stereo not shown) [Compound 15] | > 70% |  |  |  |  | > 50% |
| FC(F)(F)Oc1cccc(-c2ccc3nnc(C(F)(F)F)n3n2)c1 [Compound 17] | 30 to 70% |  |  |  |  | < 50% |
| Fc1ccc(OC(F)(F)F)cc1-c1ccc2nnc(C(F)(F)F)n2n1 [Compound 18] | < 30% |  |  |  |  | < 50% |
| Fc1c(OC(F)(F)F)cccc1-c1ccc2nnc(C(F)(F)F)n2n1 [Compound 19] | < 30% |  |  |  |  | < 50% |
| OCc1nnc2ccc(-c3ccc(OC(F)(F)F)cc3)nn12 [Compound 21] |  |  | < 30% |  |  | < 50% |
| COC(F)(F)c1nnc2ccc(-c3ccc(OC(F)(F)F)cc3)nn12 [Compound 41] | > 70% | < 1 µM |  |  |  |  |
| Cc1cc(OC(F)(F)F)ccc1-c1cn2c(C(F)F)nnc2cn1 [Compound 49] | > 70% | 15 to 30 µM |  | 7.6 mL/min/kg | 8.1 h |  |
| Fc1cc(OC(F)(F)F)ccc1-c1cn2c(C(F)F)nnc2cn1 [Compound 52] | 30 to 70% | 1 to 15 µM |  |  |  |  |
| FC1(F)CC(Oc2ccc(-c3ccc4nnc(C(F)(F)F)n4n3)cc2)C1 [Compound 59] | 30 to 70% | > 30 µM |  | 39.8 mL/min/kg | 0.8 h |  |

| SMILES | inhibition at 1 µM [1, 5] | IC50 [2] | inhibition at 1 µM [1, 6] | clearance [3] | half-life [3] | inhibition at 1 µM [4] |
| --- | --- | --- | --- | --- | --- | --- |
| FC(F)(F)Oc1ccc(-c2ccc3nnc(C4(F)CC4)n3n2)cc1 [Compound 61] | > 70% |  |  | 1.6 mL/min/kg | 15.2 h |  |
| Cc1cc(OC(F)(F)F)ccc1-c1cn2c(C(F)(F)F)nnc2cn1 [Compound 63] | > 70% | 15 to 30 µM |  | 8.8 mL/min/kg | 10.2 h |  |
| FC1(F)CC(Oc2ccc(-c3ccc4nnc(C(F)(F)F)n4n3)cn2)C1 [Compound 65] | > 70% | > 30 µM |  | 31 mL/min/kg | 0.55 h |  |
| Fc1cc(OC(F)(F)F)ccc1-c1cn2c(C(F)(F)F)nnc2cn1 [Compound 72] | < 30% | 1 to 15 µM |  |  |  |  |
| Cc1cc(C(F)(F)F)ccc1-c1cn2c(C(F)(F)F)nnc2cn1 [Compound 73] | 30 to 70% | 1 to 15 µM |  |  |  |  |
| CC(C)Oc1ccc(-c2cn3c(C(F)(F)F)nnc3cn2)cc1 [Compound 77] | > 70% | 1 to 15 µM |  |  |  |  |
| Fc1cc(-c2cn3c(C(F)(F)F)nnc3cn2)cnc1OCC(F)(F)F [Compound 78] | 30 to 70% | > 30 µM |  |  |  |  |
| COC(F)(F)c1nnc2ccc(-c3cnc(OCC(F)(F)F)c(F)c3)nn12 [Compound 96] | > 70% | > 30 µM |  |  |  |  |
| Cc1cc(C2(C#N)CC2)ccc1-c1ccc2nnc(C(F)(F)F)n2n1 [Compound 105] |  | 15 to 30 µM | 30 to 70% |  |  |  |
| Fc1cc(-c2ccc3nnc(C(F)(F)F)n3n2)cnc1OCC(F)(F)F [Compound 107] | > 70% | > 30 µM |  | 13.9 mL/min/kg | 1.9 h |  |
| FC(F)(F)Oc1ccc(-c2ccc3nnc(C(F)(F)F)n3n2)cc1 [Compound 108] |  | 1 to 15 µM |  |  |  |  |
| FC(F)(F)Oc1ccc(-c2cn3c(C4(F)CC4)nnc3cn2)cc1 [Compound 112] | 30 to 70% | 1 to 15 µM |  |  |  |  |
| COCc1cc(C(F)(F)F)ccc1-c1cn2c(C(F)(F)F)nnc2cn1 [Compound 113] | > 70% | 1 to 15 µM |  |  |  |  |
| COCc1cc(-c2ccc3nnc(C(F)(F)F)n3n2)ccc1OC(F)(F)F [Compound 117] | > 70% | 15 to 30 µM |  |  |  |  |
| Cc1cc(OC(F)(F)F)ccc1-c1ccc2nnc(C(F)F)n2n1 [Compound 136] | > 70% | 1 to 15 µM |  |  |  |  |
| Nc1cc2nnc(C(F)(F)F)n2nc1-c1ccc(OC(F)(F)F)cc1 [Compound 190, 6-[4-(trifluoromethoxy)phenyl]-3-(trifluoromethyl)-[1,2,4]triazolo[4,3-b]pyridazin-7-amine] | < 30% |  |  |  |  |  |
| CC(=O)Nc1cc2nnc(C(F)(F)F)n2nc1-c1ccc(OC(F)(F)F)cc1 [Compound 191] | < 30% |  |  |  |  |  |
| COCc1nc(-c2ccc(OC(F)(F)F)cc2)cn2c(C(F)(F)F)nnc12 [Compound 192] | < 30% |  |  |  |  |  |
| Fc1cc(-c2cn3c(C(F)(F)F)nnc3cn2)ccc1OC1CC(F)(F)C1 [Compound 194] | 30 to 70% |  |  |  |  |  |
| CC(C)OCc1ccc(-c2cn3c(C(F)(F)F)nnc3cn2)cc1 [Compound 195] | < 30% |  |  |  |  |  |
| OCc1ccc(-c2cn3c(C(F)(F)F)nnc3cn2)cc1 [Compound 196, [4-[3-(trifluoromethyl)-[1,2,4]triazolo[4,3-a]pyrazin-6-yl]phenyl]methanol] | < 30% |  |  |  |  |  |
| FC(F)c1nnc2cnc(-c3ccc(COC(F)(F)F)cc3)cn12 [Compound 197] | 30 to 70% |  |  |  |  |  |
| C[C@@H](Oc1ccc(-c2ccc3nnc(C(F)(F)F)n3n2)cn1)C(F)(F)F [Compound 199, 3-(trifluoromethyl)-6-[6-[(1R)-2,2,2-trifluoro-1-methyl-ethoxy]-3-pyridyl]-[1,2,4]triazolo[4,3-b]pyridazine] | > 70% |  |  |  |  |  |
| C[C@H](Oc1ccc(-c2ccc3nnc(C(F)(F)F)n3n2)cn1)C(F)(F)F [Compound 200, 3-(trifluoromethyl)-6-[6-[(1S)-2,2,2-trifluoro-1-methyl-ethoxy]-3-pyridyl]-[1,2,4]triazolo[4,3-b]pyridazine] | > 70% |  |  |  |  |  |
